Test results: patent US20260258032A1, “TYROSINE KINASE 2 INHIBITORS AND USES THEREOF” (BIOGEN MA INC., priority 2022, published 2026)
Counter-ions that a name gives are not always drawn.

Experiments:
[1] = test system: Tyk2 kinase activity on STAT4; test: pSTAT4 cell assay (MSD, NK92 cells); assay type: cell-based; details: compounds 1 hr, stimulated 15 minutes
Description: The inhibitory potency of compounds of the disclosure against the Tyk2 kinase activity on STAT4 was evaluated using an MSD-platform plate-based assay format. NK92 cells natively expressing STAT4 and Tyk2 were serum-starved to reduce background phosphorylation levels, then cells were treated compounds for 1 hr with a 10-point four-fold dilution series starting at 10 μM. Cells were then stimulated with 30 ng/mL IL2 for 15 minutes. Cells were lysed and […] levels were quantitated using an MSD plate-based assay with anti-STAT4 antibodies. The data were normalized and the percent activity versus log concentration of compound were fitted with a 4-parameter logistic model to generate to generate IC50 curves.

JH2 domain of human Tyk2 = biological target: T1, JH2 domain of human Tyk2 (Homo sapiens, UniProt P29597); test: JH2 biochemical assay (TR-FRET probe displacement); assay type: binding
T1 construct: 10×His-tagged TYK2 JH2 domain (amino acid 575-876)
T1 sequence (P29597 575-876): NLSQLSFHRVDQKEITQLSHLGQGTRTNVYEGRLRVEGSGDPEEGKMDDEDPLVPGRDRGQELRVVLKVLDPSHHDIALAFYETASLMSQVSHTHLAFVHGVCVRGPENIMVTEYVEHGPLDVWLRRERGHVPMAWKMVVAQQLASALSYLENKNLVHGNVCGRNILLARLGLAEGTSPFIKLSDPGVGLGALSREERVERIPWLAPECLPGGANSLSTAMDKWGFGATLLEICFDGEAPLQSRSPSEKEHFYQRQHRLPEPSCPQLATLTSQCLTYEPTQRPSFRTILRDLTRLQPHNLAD
Description: The inhibitory potency of compounds of the disclosure against the kinase activity of recombinantly generated JH2 domain of human Tyk2 was evaluated in a plate-based assay using a TR-FRET assay platform. Briefly, 2 nM of recombinant JH2 domain [10×His-tagged TYK2 JH2 domain (amino acid 575-876)] was combined with 2 nM probe ((S)-6-amino-9-(2-carboxy-4-((1-(3-(8-methyl-5-(methylamino)-8H-imidazo[4,5-d]thiazolo[5,4-b]pyridin-2-yl)phenyl)ethyl)carbamoyl)phenyl)-3-iminio-5-sulfo-3H-xanthene-4-sulfonate), 0.1 nM Tb-labeled anti-His antibody, and compounds of disclosure for 60 minutes. Compounds are tested at either […] top concentration, 10 points of 3-fold dilution. The TR-FRET signal […] by compounds and signal was calculated by taking the ratio of fluorescence at 520 nm and 495 nm. The data was normalized and the percent activity versus log concentration of compound was fitted with a 4-parameter logistic model to generate IC50 curves.

CC(=O)Nc1cc2c(cn1)C1(CC1)CN2c1cc(C)nc(N2CCC(N(C)C)C2)n1 (stereo not drawn) [Example 215, N-(1′-(2-(3-(dimethylamino)pyrrolidin-1-yl)-6-methylpyrimidin-4-yl)-1′,2′-dihydrospiro[cyclopropane-1,3′-pyrrolo[3,2-c]pyridin]-6′-yl)acetamide]
IC50 [1]: ≥ 1 µM

CC(=O)Nc1cc2c(cn1)C1(CC1)CN2c1cc(OCC2(C)COC2)nc(C(C)(F)F)n1 [Example 139, N-(1′-(2-(1,1-difluoroethyl)-6-((3-methyloxetan-3-yl)methoxy)pyrimidin-4-yl)-1′,2′-dihydrospiro[cyclopropane-1,3′-pyrrolo[3,2-c]pyridin]-6′-yl)acetamide trifluoroacetate]
IC50 [1]: ≥ 1 µM

CC(=O)Nc1cc2c(cn1)C1(CC1)CN2c1cc(C)nc(-c2cccnc2)n1 [Example 106, N-(1′-(6-methyl-2-(pyridin-3-yl)pyrimidin-4-yl)-1′,2′-dihydrospiro[cyclopropane-1,3′-pyrrolo[3,2-c]pyridin]-6′-yl)acetamide]
IC50 [1]: ≥ 1 µM

CC(=O)Nc1cc2c(cn1)C1(CC1)CN2c1cc(C)nc(OC2(C)COC2)n1 [Example 365, N-(1′-(6-methyl-2-((3-methyloxetan-3-yl)oxy)pyrimidin-4-yl)-1′,2′-dihydrospiro[cyclopropane-1,3′-pyrrolo[3,2-c]pyridin]-6′-yl)acetamide]
IC50 [1]: 0.1 to 1 µM

CC(=O)Nc1cc2c(cn1)C1(CC1)CN2c1cc(C)nc(-c2ccccc2)n1 [Example 105, N-(1′-(6-methyl-2-phenylpyrimidin-4-yl)-1′,2′-dihydrospiro[cyclopropane-1,3′-pyrrolo[3,2-c]pyridin]-6′-yl)acetamide]
IC50 [1]: ≥ 1 µM

CC(=O)Nc1cc2c(cn1)C1(CC1)CN2c1cc(NC23CC(C2)C3)nc(C(C)(F)F)n1 [Example 159, N-(1′-(6-(bicyclo[1.1.1]pentan-1-ylamino)-2-(1,1-difluoroethyl)pyrimidin-4-yl)-1′,2′-dihydrospiro[cyclopropane-1,3′-pyrrolo[3,2-c]pyridin]-6′-yl)acetamide trifluoroacetate]
IC50 [1]: 0.01 to 0.1 µM

CC(=O)Nc1cc2c(cn1)C1(CC1)CN2c1cc(C)nc(OC(C)C)n1 [Example 362, N-(1′-(2-isopropoxy-6-methylpyrimidin-4-yl)-1′,2′-dihydrospiro[cyclopropane-1,3′-pyrrolo[3,2-c]pyridin]-6′-yl)acetamide trifluoroacetate]
IC50 [1]: 0.1 to 1 µM

COCCOc1nc(C)cc(N2CC3(CC3)c3cnc(NC(C)=O)cc32)n1 [Example 360, N-(1′-(2-(2-methoxyethoxy)-6-methylpyrimidin-4-yl)-1′,2′-dihydrospiro[cyclopropane-1,3′-pyrrolo[3,2-c]pyridin]-6′-yl)acetamide trifluoroacetate]
IC50 [1]: ≥ 1 µM

CC(=O)Nc1cc2c(cn1)C1(CC1)CN2c1cc(C(C)C#N)nc(C(C)(F)F)n1 (stereo not drawn) [Example 302, N-(1′-(6-(1-cyanoethyl)-2-(1,1-difluoroethyl)pyrimidin-4-yl)-1′,2′-dihydrospiro[cyclopropane-1,3′-pyrrolo[3,2-c]pyridin]-6′-yl)acetamide]
IC50 [1]: 0.1 to 1 µM

CC(=O)Nc1cc2c(cn1)C1(CC1)CN2c1cc(C)nc(-c2cnn(C3CCC3)c2)n1 [Example 246, N-(1′-(2-(1-cyclobutyl-1H-pyrazol-4-yl)-6-methylpyrimidin-4-yl)-1′,2′-dihydrospiro[cyclopropane-1,3′-pyrrolo[3,2-c]pyridin]-6′-yl)acetamide]
IC50 [1]: ≥ 1 µM

CC(=O)Nc1cc2c(cn1)C1(CC1)CN2c1cc(C)nc(-n2nc(C)cc2C)n1 [Example 110, N-(1′-(2-(3,5-dimethyl-1H-pyrazol-1-yl)-6-methylpyrimidin-4-yl)-1′,2′-dihydrospiro[cyclopropane-1,3′-pyrrolo[3,2-c]pyridin]-6′-yl)acetamide]
IC50 [1]: ≥ 1 µM

CC(=O)Nc1cc2c(cn1)C1(CC1)CN2c1cc(C)nc(-c2cc[nH]n2)n1 [Example 252, N-(1′-(6-methyl-2-(1H-pyrazol-3-yl)pyrimidin-4-yl)-1′,2′-dihydrospiro[cyclopropane-1,3′-pyrrolo[3,2-c]pyridin]-6′-yl)acetamide trifluoroacetate]
IC50 [1]: 0.1 to 1 µM

CC(=O)Nc1cc2c(cn1)C1(CC1)CN2c1cc(C)nc(-c2ccccn2)n1 [Example 112, N-(1′-(6-methyl-2-(pyridin-2-yl)pyrimidin-4-yl)-1′,2′-dihydrospiro[cyclopropane-1,3′-pyrrolo[3,2-c]pyridin]-6′-yl)acetamide]
IC50 [1]: ≥ 1 µM

CC(=O)Nc1cc2c(cn1)C1(CC1)CN2c1cc(C)nc(-c2ncccn2)n1 [Example 108, N-(1′-(6-methyl-[2,2′-bipyrimidin]-4-yl)-1′,2′-dihydrospiro[cyclopropane-1,3′-pyrrolo[3,2-c]pyridin]-6′-yl)acetamide]
IC50 [1]: ≥ 1 µM

CC(=O)Nc1cc2c(cn1)C1(CCOCC1)CN2c1nccc(C(C)(F)F)n1 [Example 46, N-(1′-(4-(1,1-difluoroethyl)pyrimidin-2-yl)-1′,2,2′,3,5,6-hexahydrospiro[pyran-4,3′-pyrrolo[3,2-c]pyridin]-6′-yl)acetamide]
IC50 (JH2 domain of human Tyk2; JH2 biochemical assay): ≥ 1 µM

CC(=O)Nc1cc2c(cn1)C1(CCCC1)CN2c1cccc(C(C)(F)F)n1 [Example 45, N-(1′-(6-(1,1-difluoroethyl)pyridin-2-yl)-1′,2′-dihydrospiro[cyclopentane-1,3′-pyrrolo[3,2-c]pyridin]-6′-yl)acetamide]
IC50 (JH2 domain of human Tyk2; JH2 biochemical assay): 0.1 to 1 µM

CC(=O)Nc1cc2c(cn1)C1(CC1)CN2c1cc(C)nc(C2CCCN(C)C2)n1 (stereo not drawn) [Example 117, N-(1′-(6-methyl-2-(1-methylpiperidin-3-yl)pyrimidin-4-yl)-1′,2′-dihydrospiro[cyclopropane-1,3′-pyrrolo[3,2-c]pyridin]-6′-yl)acetamide]
IC50 (JH2 domain of human Tyk2; JH2 biochemical assay): ≥ 1 µM

CC(=O)Nc1cc2c(cn1)C1(CC1)CN2c1cc(C)nc(N2CC(C#N)(CF)C2)n1 [Example 218, N-(1′-(2-(3-cyano-3-(fluoromethyl)azetidin-1-yl)-6-methylpyrimidin-4-yl)-1′,2′-dihydrospiro[cyclopropane-1,3′-pyrrolo[3,2-c]pyridin]-6′-yl)acetamide]
IC50 (JH2 domain of human Tyk2; JH2 biochemical assay): ≤ 0.01 µM

CC(=O)Nc1cc2c(cn1)C1(CC1)CN2c1cc(C)cc(-c2cnn(CC3CC3)c2)n1 [Example 266, N-(1′-(6-(1-(cyclopropylmethyl)-1H-pyrazol-4-yl)-4-methylpyridin-2-yl)-1′,2′-dihydrospiro[cyclopropane-1,3′-pyrrolo[3,2-c]pyridin]-6′-yl)acetamide trifluoroacetate]
IC50 (JH2 domain of human Tyk2; JH2 biochemical assay): 0.01 to 0.1 µM

CC(=O)Nc1cc2c(cn1)C1(CC1)CN2c1cc(C)nc2cc(C)nn12 [Example 28, N-(1′-(2,5-dimethylpyrazolo[1,5-a]pyrimidin-7-yl)-1′,2′-dihydrospiro[cyclopropane-1,3′-pyrrolo[3,2-c]pyridin]-6′-yl)acetamide]
IC50 (JH2 domain of human Tyk2; JH2 biochemical assay): ≥ 1 µM

CC(=O)Nc1cc2c(cn1)C1(CCCC1)CN2c1nccc(C(C)(F)F)n1 [Example 43, N-(1′-(4-(1,1-difluoroethyl)pyrimidin-2-yl)-1′,2′-dihydrospiro[cyclopentane-1,3′-pyrrolo[3,2-c]pyridin]-6′-yl)acetamide]
IC50 (JH2 domain of human Tyk2; JH2 biochemical assay): 0.1 to 1 µM

CC(=O)Nc1cc2c(cn1)C1(CC1)CN2c1cc(C)nc(C2CC3CCC2O3)n1 (stereo not drawn) [Example 102, N-(1′-(2-(7-oxabicyclo[2.2.1]heptan-2-yl)-6-methylpyrimidin-4-yl)-1′,2′-dihydrospiro[cyclopropane-1,3′-pyrrolo[3,2-c]pyridin]-6′-yl)acetamide trifluoroacetate]
IC50 (JH2 domain of human Tyk2; JH2 biochemical assay): 0.01 to 0.1 µM

CC(=O)Nc1cc2c(cn1)C1(CC1)CN2c1cc(C)ncn1 [Example 27, N-(1′-(6-methylpyrimidin-4-yl)-1′,2′-dihydrospiro[cyclopropane-1,3′-pyrrolo[3,2-c]pyridin]-6′-yl)acetamide]
IC50 (JH2 domain of human Tyk2; JH2 biochemical assay): 0.01 to 0.1 µM

CC(=O)Nc1cc2c(cn1)C1(CC1)CN2c1cc(-c2cnn(CC#N)c2)nc(C(C)(F)F)n1 [Example 393, N-(1′-(6-(1-(cyanomethyl)-1H-pyrazol-4-yl)-2-(1,1-difluoroethyl)pyrimidin-4-yl)-1′,2′-dihydrospiro[cyclopropane-1,3′-pyrrolo[3,2-c]pyridin]-6′-yl)acetamide]
IC50 (JH2 domain of human Tyk2; TR-FRET probe displacement, JH2 domain of human Tyk2): ≤ 0.01 µM

CC(=O)Nc1cc2c(cn1)C1(CCNCC1)CN2c1nccc(C(C)(F)F)n1 [Example 270, N-(1′-(4-(1,1-difluoroethyl)pyrimidin-2-yl)-1′,2′-dihydrospiro[piperidine-4,3′-pyrrolo[3,2-c]pyridin]-6′-yl)acetamide]
IC50 (JH2 domain of human Tyk2; JH2 biochemical assay): ≥ 1 µM

CC(=O)Nc1cc2c(cn1)CCN2c1cccc(C2CCOC2)n1 (stereo not drawn) [Example 33, N-(1-(6-(tetrahydrofuran-3-yl)pyridin-2-yl)-2,3-dihydro-1H-pyrrolo[3,2-c]pyridin-6-yl)acetamide]
IC50 (JH2 domain of human Tyk2; JH2 biochemical assay): 0.01 to 0.1 µM

CC(=O)Nc1cc2c(cn1)C1(CC1)CN2c1cc(C)cc(-c2cnn(C3COC3)c2)n1 [Example 265, N-(1′-(4-methyl-6-(1-(oxetan-3-yl)-1H-pyrazol-4-yl)pyridin-2-yl)-1′,2′-dihydrospiro[cyclopropane-1,3′-pyrrolo[3,2-c]pyridin]-6′-yl)acetamide trifluoroacetate]
IC50 (JH2 domain of human Tyk2; JH2 biochemical assay): 0.01 to 0.1 µM
